The text below walks through data of patent publication US12281057B2 (VERTEX PHARMACEUTICALS INCORPORATED, priority 2017, dated 2025).

pIC50: −log10 of the molar value.

The target of the first test is truncated form of human NaV 1.8 with full channel activity (Homo sapiens, UniProt Q9Y5Y9). In words: E-VIPR Assay Method A for detecting and measuring Nav inhibition (HEK cells, membrane potential FRET dyes, electrical stimulation). The test is classed as cell-based. Conditions: HEK cells expressing human NaV 1.8, HS (human serum) in compound loading buffer, 11 point dose response, top dose 3 μM, Table 20, read-out: Nav 1.8 MedChem Optical Assay EVIPR Assay Method A HS IC50. The text has this: E-VIPR Assay Method A for Detecting and Measuring Nav Inhibition Properties Sodium ion channels are voltage-dependent proteins that can be activated by inducing membrane voltage changes by applying electric fields. The electrical stimulation instrument and methods of use, referred to as E-VIPR, are described in International Publication No. WO 2002/008748 A3 and C.-J. Huang et al. Characterization of voltage-gated sodium channel blockers by electrical stimulation and fluorescence detection of membrane potential, 24 Nature Biotech. 439-46 (2006), both of which are incorporated by reference in their entirety. The instrument comprises a microtiter plate handler, an optical system for exciting the coumarin dye while simultaneously recording the coumarin and oxonol emissions, a waveform generator, a current- or voltage-controlled amplifier, and parallel electrode pairs that are inserted into assay plate wells. Under integrated computer control, this instrument passes user-programmed electrical stimulus protocols to cells within the wells of the microtiter plate. […] Sigma #F4135), 1% NEAA (Non-Essential Amino Acids, Life Tech #11140), 1% HEPES (Life Tech #15630), 1% Pen-Strep (Penicillin-Streptomycin; […] Cells were expanded in vented cap flasks, with 95% humidity and 5% CO2. Reagents and Stock Solutions: • 100 mg/mL Pluronic F-127 (Sigma #P2443), in dry DMSO • Compound Plates: […] 5% KIR 2.1 Bacmam virus (produced in-house), prepared as described in Section 3.3 of J. A. […] The solution was made by adding 10% Pluronic F127 stock equal to combined volumes of CC2-DMPE and DiSBAC6(3). The order of preparation was first mix Pluronic and CC2-DMPE, then add DiSBAC6(3), then while vortexing add Bath1/β-Cyclodextrin. […] Assay Protocol: […] Final DMSO concentration for all wells in the assay was 0.625% (0.75% DMSO was supplemented to the Compound Loading Buffer for a final DMSO concentration of 0.625%). […] 3) Cell plates were prepared. On the day of the assay, the media was aspirated, and the cells were washed three times with 80 μL of Bath-1 buffer, maintaining 25 μL residual volume in each well. 4) 25 μL per well of Hexyl Dye Solution was dispensed into the cell plates. The cells were incubated for 20 minutes at room temp or ambient conditions in darkness. 5) 80 μL per well of Compound Loading Buffer was dispensed into compound plates. 6) The cell plates were washed three times with 80 μL per well of Bath-1 Buffer, leaving 25 µL of residual volume. Then 25 uL per well from compound plate was transferred to each cell plate. The mixture was incubated for 30 minutes at room temp/ambient conditions. 7) The plate was read on E-VIPR using the current-controlled amplifier to deliver stimulation wave pulses using the following protocol: 1.25 Amps, 2.5 ms pulse width biphasic waveform, 10 Hz for 10 seconds at a scan rate of 200 Hz. A pre-stimulus recording was performed for 0.5 seconds to obtain the un-stimulated intensities baseline. The stimulatory waveform was followed by 0.5 seconds of post-stimulation recording to examine the relaxation to the resting state. Data Analysis: Data were analyzed and reported as normalized ratios of emission intensities measured in the 460 nm and 580 nm channels. The response as a function of time was reported as the ratios obtained using the following formula: […] The data were further reduced by calculating the initial (Ri) and final (Rf) ratios. These were the average ratio values during part or all of the pre-stimulation period and during sample points during the stimulation period. The fluorescence ratio (Rf/Ri) was then calculated and reported as a function of time. Control responses were obtained by performing assays in the presence of the positive control, and in the absence of pharmacological agents (DMSO vehicle negative control). Responses to the negative (N) and positive (P) controls were calculated as above. The compound antagonist % activity A was then defined as: [formula] where X is the ratio response of the test compound. […]
Sequence of truncated form of human NaV 1.8 with full channel activity (Q9Y5Y9 126-1722 limits assumed): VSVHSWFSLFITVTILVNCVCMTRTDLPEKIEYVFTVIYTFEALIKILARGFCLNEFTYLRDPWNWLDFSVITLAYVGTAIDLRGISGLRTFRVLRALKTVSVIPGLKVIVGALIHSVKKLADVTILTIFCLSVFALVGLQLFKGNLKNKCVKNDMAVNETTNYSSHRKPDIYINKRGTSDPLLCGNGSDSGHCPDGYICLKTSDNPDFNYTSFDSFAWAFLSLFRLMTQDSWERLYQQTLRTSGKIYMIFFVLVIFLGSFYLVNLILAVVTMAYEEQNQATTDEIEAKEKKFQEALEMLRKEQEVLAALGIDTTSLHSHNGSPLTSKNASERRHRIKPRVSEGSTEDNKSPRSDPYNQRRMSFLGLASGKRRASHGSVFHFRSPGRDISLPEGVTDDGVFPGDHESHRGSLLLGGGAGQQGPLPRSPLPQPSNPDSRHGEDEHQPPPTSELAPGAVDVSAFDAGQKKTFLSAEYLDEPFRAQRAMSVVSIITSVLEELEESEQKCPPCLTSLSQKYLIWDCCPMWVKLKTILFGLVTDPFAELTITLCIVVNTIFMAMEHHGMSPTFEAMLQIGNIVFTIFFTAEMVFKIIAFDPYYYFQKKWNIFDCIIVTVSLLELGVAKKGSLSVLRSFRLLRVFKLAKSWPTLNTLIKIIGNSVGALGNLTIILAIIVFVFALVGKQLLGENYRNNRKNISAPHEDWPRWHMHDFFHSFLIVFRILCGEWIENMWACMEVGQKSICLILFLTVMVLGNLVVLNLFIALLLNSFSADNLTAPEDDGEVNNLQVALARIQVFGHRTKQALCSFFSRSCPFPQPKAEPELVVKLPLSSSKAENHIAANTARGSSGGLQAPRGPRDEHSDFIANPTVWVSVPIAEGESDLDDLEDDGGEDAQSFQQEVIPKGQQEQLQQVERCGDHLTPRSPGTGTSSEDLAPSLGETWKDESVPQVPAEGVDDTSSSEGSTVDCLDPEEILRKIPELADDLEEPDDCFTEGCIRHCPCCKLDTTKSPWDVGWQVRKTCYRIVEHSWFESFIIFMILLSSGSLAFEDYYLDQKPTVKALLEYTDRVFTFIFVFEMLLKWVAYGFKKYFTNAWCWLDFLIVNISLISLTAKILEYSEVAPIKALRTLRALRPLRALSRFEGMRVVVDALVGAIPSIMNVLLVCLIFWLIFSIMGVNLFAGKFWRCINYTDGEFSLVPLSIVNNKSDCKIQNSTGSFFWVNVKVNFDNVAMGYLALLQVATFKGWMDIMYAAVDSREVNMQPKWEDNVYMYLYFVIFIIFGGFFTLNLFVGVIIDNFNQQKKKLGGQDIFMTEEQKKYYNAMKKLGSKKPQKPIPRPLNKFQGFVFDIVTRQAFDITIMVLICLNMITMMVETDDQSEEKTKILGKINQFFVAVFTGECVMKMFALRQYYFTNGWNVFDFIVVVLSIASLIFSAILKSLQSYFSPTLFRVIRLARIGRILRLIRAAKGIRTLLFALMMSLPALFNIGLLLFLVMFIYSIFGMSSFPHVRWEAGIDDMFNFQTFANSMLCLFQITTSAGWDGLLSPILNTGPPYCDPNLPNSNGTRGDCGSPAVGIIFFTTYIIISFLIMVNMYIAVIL
A word on the pIC50: it is the IC50 on a negative log10 scale, so that one unit is a factor of ten. Turning to `NC(=O)c1cc(NC(=O)c2c(Oc3ccc(OC(F)(F)F)cc3Cl)ccc(C(F)(F)F)c2F)ccc1F` [Compound 9, N-(3-carbamoyl-4-fluoro-phenyl)-6-[2-chloro-4-(trifluoromethoxy)phenoxy]-2-fluoro-3-(trifluoromethyl)benzamide], the pIC50 is 8.52.

The test is the same for the next values; noted with them: HEK cells expressing human NaV 1.8, HS (human serum) in compound loading buffer, 11 point dose response, top dose 3 μM, Table 20A, read-out: Nav 1.8 MedChem Optical Assay EVIPR Assay Method A HS IC50.
For `[2H]C([2H])([2H])Oc1cc(OC(F)(F)F)ccc1Oc1cc(OC(F)(F)F)cc(F)c1C(=O)Nc1ccc(C(N)=O)nc1` [Compound 173, 5-[[2-Fluoro-6-[2-(trideuteriomethoxy)-4-(trifluoromethoxy)phenoxy]-4-(trifluoromethoxy)benzoyl]amino]pyridine-2-carboxamide], the pIC50 was 7.28.
For `[2H]C([2H])([2H])Oc1c(Oc2ccc(C(F)F)c(F)c2C(=O)Nc2cc(C(N)=O)ncc2C)ccc(OC(F)(F)F)c1F` [Compound 237, 4-[[3-(Difluoromethyl)-2-fluoro-6-[3-fluoro-2-(trideuteriomethoxy)-4-(trifluoromethoxy)phenoxy]benzoyl]amino]-5-methyl-pyridine-2-carboxamide], the pIC50 was 7.92.
With `NC(=O)c1cc(NC(=O)c2c(Oc3ccc(F)cc3)ccc(C(F)(F)F)c2F)ccn1` [Compound 50, 4-[[2-fluoro-6-(4-fluorophenoxy)-3-(trifluoromethyl)benzoyl]amino]pyridine-2-carboxamide], the pIC50 was 7.29.
The same measure, in the same setting: under `COc1c(C(F)(F)F)ncc(Oc2ccc(OC(F)(F)F)cc2)c1C(=O)Nc1cc(C(N)=O)ncc1C` [Compound 131, N-(2-Carbamoyl-5-methyl-4-pyridyl)-3-methoxy-5-[4-(trifluoromethoxy)phenoxy]-2-(trifluoromethyl)pyridine-4-carboxamide] stands 6.77; under `NC(=O)c1cc(F)cc(NC(=O)c2c(Oc3ccc(OC(F)(F)F)cc3)ccc(C(F)(F)F)c2F)c1` [Compound 101, N-(3-carbamoyl-5-fluoro-phenyl)-2-fluoro-6-[4-(trifluoromethoxy)phenoxy]-3-(trifluoromethyl)benzamide], 6.87.
Turning to `COc1cc(OC(F)(F)F)ccc1Oc1ccc(C(F)(F)F)c(F)c1C(=O)Nc1cc(F)cc(C(N)=O)c1` [Compound 100, N-(3-carbamoyl-5-fluoro-phenyl)-2-fluoro-6-[2-methoxy-4-(trifluoromethoxy)phenoxy]-3-(trifluoromethyl)benzamide], the pIC50 was 8.05.
On the same count and under the same terms, under `[2H]C([2H])([2H])Oc1cc(OC(F)(F)F)ccc1Oc1ccc(C(F)(F)F)c(F)c1C(=O)Nc1cc[n+]([O-])c(C(N)=O)c1` [Compound 115, 4-[[2-Fluoro-6-[2-(trideuteriomethoxy)-4-(trifluoromethoxy)phenoxy]-3-(trifluoromethyl)benzoyl]amino]-1-oxido-pyridin-1-ium-2-carboxamide] stands 8.22; under `COc1cc(OC(F)(F)F)ccc1Oc1cc(C(F)(F)F)ccc1C(=O)Nc1ccc(F)c(C(N)=O)c1` [Compound 27, N-(3-Carbamoyl-4-fluoro-phenyl)-2-[2-methoxy-4-(trifluoromethoxy)phenoxy]-4-(trifluoromethyl)benzamide], 7.06; under `COc1cc(OC(F)(F)F)ccc1Oc1cc(C2(C(F)(F)F)CC2)ncc1C(=O)Nc1ccnc(C(N)=O)c1` [Compound 119, N-(2-Carbamoyl-4-pyridyl)-4-[2-methoxy-4-(trifluoromethoxy)phenoxy]-6-[1-(trifluoromethyl)cyclopropyl]pyridine-3-carboxamide], 7.32.
Still for that read-out and setting: under `[2H]c1cc(F)c(C(N)=O)cc1NC(=O)c1c(Oc2c([2H])cc(OC(F)(F)F)c([2H])c2[2H])ccc(C(F)(F)F)c1F` [Compound 213, N-(5-Carbamoyl-2-deuterio-4-fluoro-phenyl)-2-fluoro-6-[2,3,6-trideuterio-4-(trifluoromethoxy)phenoxy]-3-(trifluoromethyl)benzamide] stands 8.05; under `COc1cc(OC(F)(F)F)ccc1Oc1ccc(C(F)(F)F)c(F)c1C(=O)Nc1cc(C(N)=O)ncc1Cl` [Compound 152, 5-Chloro-4-[[2-fluoro-6-[2-methoxy-4-(trifluoromethoxy)phenoxy]-3-(trifluoromethyl)benzoyl]amino]pyridine-2-carboxamide], 7.77; under `[2H]C([2H])([2H])Oc1c(Oc2ccc(C(F)(F)F)c(F)c2C(=O)Nc2ccnc(C(N)=O)c2)ccc(OC(F)(F)F)c1F` [Compound 218, 4-[[2-Fluoro-6-[3-fluoro-2-(trideuteriomethoxy)-4-(trifluoromethoxy)phenoxy]-3-(trifluoromethyl)benzoyl]amino]pyridine-2-carboxamide], 8.70.
On to `NC(=O)c1ccc(NC(=O)c2c(Oc3ccc(OC(F)(F)F)cc3)ccc(C(F)(F)F)c2F)cc1` [Compound 264, N-(4-carbamoylphcnyl)-2-fluoro-6-(4-(trifluoromethoxy)phenoxy)-3-(trifluoromethyl)benzamide], for which the pIC50 was 7.27.
For `NC(=O)c1cc(NC(=O)c2c(Oc3ccc(OC(F)(F)F)cc3)ccc(C(F)F)c2F)ccc1F` [Compound 74, N-(3-Carbamoyl-4-fluoro-phenyl)-3-(difluoromethyl)-2-fluoro-6-[4-(trifluoromethoxy)phenoxy]benzamide], the pIC50 was 7.66.
The same measure, in the same setting: under `COc1nc(Cl)ccc1Oc1ccc(C(F)(F)F)c(F)c1C(=O)Nc1ccc(C(N)=O)c(F)c1` [Compound 67, N-(4-carbamoyl-3-fluoro-phenyl)-6-[(6-chloro-2-methoxy-3-pyridyl)oxy]-2-fluoro-3-(trifluoromethyl)benzamide] stands 7.38; under `COc1cc(OC(F)(F)F)ccc1Oc1cc(C2CC2)c(F)cc1C(=O)Nc1ccnc(C(N)=O)c1` [Compound 116, 4-[[4-Cyclopropyl-5-fluoro-2-[2-methoxy-4-(trifluoromethoxy)phenoxy]benzoyl]amino]pyridine-2-carboxamide], 6.84.
Still for that read-out and setting: under `[2H]C([2H])([2H])Oc1cc(OC(F)(F)F)ccc1Oc1cc(C(F)(F)F)cc(C(F)(F)F)c1C(=O)Nc1ccnc(C(N)=O)c1` [Compound 175, 4-[[2-[2-(Trideuteriomethoxy)-4-(trifluoromethoxy)phenoxy]-4,6-bis(trifluoromethyl)benzoyl]amino]pyridine-2-carboxamide] stands 7.42.
As to `COc1cc(OC(F)(F)F)ccc1Oc1cc(C(F)(F)F)cc(F)c1C(=O)Nc1cc(C(N)=O)c(F)cc1C` [Compound 139, 2-Fluoro-5-[[2-fluoro-6-[2-methoxy-4-(trifluoromethoxy)phenoxy]-4-(trifluoromethyl)benzoyl]amino]-4-methyl-benzamide], the pIC50 is 7.07.
As for `Cc1cnc(C(N)=O)cc1NC(=O)c1c(Oc2ccc(OC(F)(F)F)cc2)ccc(C(F)(F)F)c1F` [Compound 242, 4-[[2-fluoro-6-[4-(trifluoromethoxy)phenoxy]-3-(trifluoromethyl)benzoyl]amino]-5-methyl-pyridine-2-carboxamide], the pIC50 is 7.36.
Still for that read-out and setting: under `COc1cc(F)ccc1Oc1cc(Cl)cc(Cl)c1C(=O)Nc1ccc(C(N)=O)nc1` [Compound 182, 5-[[2,4-Dichloro-6-(4-fluoro-2-methoxy-phenoxy)benzoyl]amino]pyridine-2-carboxamide] stands 6.39; under `COc1cc(OC(F)(F)F)ccc1Oc1cc2c(cc1C(=O)Nc1ccnc(C(N)=O)c1)OC(F)(F)O2` [Compound 121, 4-[[2,2-Difluoro-6-[2-methoxy-4-(trifluoromethoxy)phenoxy]-1,3-benzodioxole-5-carbonyl]amino]pyridine-2-carboxamide], 6.74.
